# According to US7973056B2, “Triazole derivative or salt thereof” (Fujifilm Finechemicals Co., Ltd, priority 2008, dated 2011):
# Tests used:
# [1] = system: Aspergillus fumigatus ATCC 1028; test: Antifungal activity test (in vitro), MIC; format: cell-based; conditions: ATCC1028
# Procedure: Minimum inhibitory concentration (MIC) of each of the compounds obtained in Examples 1 to 12 was measured for respective fungi at MOS Pharm Service, by the methods described in Antimicrobial Agents and Chemotherapy, vol. 3, pp. 40-48 (1973), Antimicrobial Agents and Chemotherapy, vol. 33, pp. 215-222 (1989) and Antimicrobial Agents and Chemotherapy, vol. 38, pp. 2362-2368 (1994). The measuring conditions are shown in the following. In this case, Voriconazol was used as a comparative compound.
# Aspergillus fumigatus ATCC 1028; Cultured at 28° C. for 2 days using potato dextrose broth, and this was used as a cell suspension.
# Each of the compounds of the invention was adjusted to a concentration of 1% by weight using dimethyl sulfoxide (DMSO) and a medium similar to the respective medium used in the above-mentioned fungal culture, having a final concentration of from 0.001 to 100 μg/ml, was prepared. Each of the inoculation cell suspensions prepared by the above-mentioned methods was inoculated onto this agar plate. […] In this connection, Voriconazol was used as the comparative compound C-1.
# [2] = system: Trichophyton mentagrophytes ATCC 9533; test: Antifungal activity test (in vitro), MIC; format: cell-based; conditions: ATCC9533
# Procedure: (§1) Minimum inhibitory concentration (MIC) of each of the compounds obtained in Examples 1 to 12 was measured for respective fungi at MOS Pharm Service, by the methods described in Antimicrobial Agents and Chemotherapy, vol. 3, pp. 40-48 (1973), Antimicrobial Agents and Chemotherapy, vol. 33, pp. 215-222 (1989) and Antimicrobial Agents and Chemotherapy, vol. 38, pp. 2362-2368 (1994). The measuring conditions are shown in the following. In this case, Voriconazol was used as a comparative compound. Trichophyton mentagrophytes ATCC 9533; Cultured at 28° C. for 3 days using fluid Sabouraud medium, and this was used as a cell suspension. Each of the compounds of the invention was adjusted to a concentration of 1% by weight using dimethyl sulfoxide (DMSO) and a medium similar to the respective medium used in the above-mentioned fungal culture, having a final concentration of from 0.001 to 100 μg/ml, was prepared. Each of the inoculation cell suspensions prepared by the above-mentioned methods was inoculated onto this agar plate. […] In this connection, Voriconazol was used as the comparative compound C-1.
# [3] = system: Candida albicans ATCC 10231; test: Antifungal activity test (in vitro), MIC; format: cell-based; conditions: ATCC10231
# Procedure: as §1, with “Candida albicans” for “Trichophyton mentagrophytes”, “10231 and ATCC 44858;” for “9533;”, “37°” for “28°”, “20 hours” for “3 days”
# [4] = system: Pityrosporum ovale ATCC 38593; test: Antifungal activity test (in vitro), MIC; format: cell-based; conditions: Malassezia furfur, ATCC38593
# Procedure: as §1, with “Cryptococcus neoformans” for “Trichophyton mentagrophytes”, “24067, Pityrosporum ovale ATCC 38593;” for “9533;”, “37°” for “28°”, “2 day” for “3 days”
# [5] = system: Cryptococcus neoformans ATCC 24067; test: Antifungal activity test (in vitro), MIC; format: cell-based; conditions: ATCC24067
# Procedure: as §1, with “Cryptococcus neoformans” for “Trichophyton mentagrophytes”, “24067, Pityrosporum ovale ATCC 38593;” for “9533;”, “37°” for “28°”, “2 day” for “3 days”
# [6] = system: Microsporum canis ATCC 36299; test: Antifungal activity test (in vitro), MIC; format: cell-based; conditions: ATCC36299
# Procedure: as §1, with “compound. Microsporum canis” for “compound. Trichophyton mentagrophytes”, “ATCC 36299;” for “ATCC 9533;”, “at 30°” for “at 28°”, “for 2” for “for 3”
# [7] = system: Candida albicans TIMM 1623; test: Antifungal activity test (in vivo), mouse systemic infection model; conditions: for T/C (%): survival time of administration group / control group x100
# Procedure: With respect to compounds I-1, I-3 and I-6 obtained in Examples 1, 3 and 6 respectively, therapeutic effects at the time of subcutaneous administration of compounds I-1, I-3 and I-6 on a mouse systemic infection model by Candida albicans TIMM 1623 were tested.
# The test was carried out using 5 animals for each of the drug administration groups and Negative control group (sterile physiological saline administration group).
# Each of compounds I-1, I-3 and I-6 was dissolved in and diluted with dimethyl sulfoxide (DMSO; Wako Pure Chemical Industries, Ltd.) and then prepared into a predetermined concentration by diluting with sterile physiological saline.
# As the control experiment, Fluconazole (FLCZ, Flanos intravenous drip solution 100 mg; TOYAMA CHEMICAL CO, LTD.) diluted to a predetermined concentration with sterile physiological saline was used.
# On the next day of the receipt of animals, body weights of mice were measured and CP (crude protein) was intraperitoneally administered at a dose of 200 mg/kg based on the individual body weight, and then they were reared for 3 days.
# Cells of C. albicans TIMM 1623 cultured overnight at 35° C. on SDA (Sabouraud dextrose agar; Eiken Chemical Co., Ltd.) plate medium were suspended in sterile physiological saline and used as the Stock solution, and a portion thereof was diluted with 10% formalin (Wako Pure Chemical Industries, Ltd.). The number of cells in the diluted liquid was counted under a biological microscope using a hemocytometer, and then an inoculum was prepared by diluting the stock solution with sterile physiological saline (about 1.5×10^5 cells/ml). By inoculating 0.2 ml of this cell suspension through caudal vein, infection was induced. In this connection, the number of viable cells in the inoculum was verified by spreading the cell suspension optionally diluted with sterile physiological saline on an SDA plate medium and then culturing at 35° C. Each of the substances to be tested, control substance or sterile physiological saline was subcutaneously administered after 2 hours of the infection and for 3 days starting on the next day of infection once a day, a total of 4 times. After measuring individual body weight on the next day of infection, CP was again administered intraperitoneally at a dose of 100 mg/kg. The number of survived mice was observed and recorded for 14 days starting on the next day of infection.
# The results were shown in Table 3 below and FIGS. 1A to 1D. In the table, the administration dose of the compounds of the present invention and the comparative compound represents a mg amount per 1 kg of a mouse weight (mg/kg).
# Significant deference was tested, by 5% for both sides of the levels of significance, in accordance with the Kaplan-Meier method Logrank test (comparison of multiple groups), on the survival time distribution of each of the substances to be tested and control substance administration groups and sterile physiological saline administration group. SAS release 8.2 (SAS Institute Japan) was used in the Kaplan-Meier method Logrank test. (T/C(%)=[survival time of administration group (integrated value)/survival time of control group (integrated value)]×100)
compound,measurement,setting,value
"C[C@@H](N1CCC=C(c2ccccn2)C1)[C@](O)(Cn1cncn1)c1ccc(F)cc1F [I-10, (2R,3R)-2-(2,4-difluorophenyl)-3-(5′,6′-dihydro-2,3′-bipyridin-1′(2′H)-yl)-1-(1,2,4-triazol-1-yl)butan-2-ol]",MIC,[1],100 µg/mL
same,MIC,[2],3 µg/mL
same,MIC,[3],3 µg/mL
same,MIC,[4],0.3 µg/mL
same,MIC,[5],1 µg/mL
same,MIC,[6],100 µg/mL
same,melting point,,89 to 92 °C
"OC(Cn1cncn1)(Cn1cncn1)c1ccc(F)cc1F [FLCZ, Fluconazole, reference compound]",survival rate,"[7]; 0.1 mg/kg s.c., day 0",100
same,survival rate,"[7]; 0.1 mg/kg s.c., day 1",100
same,survival rate,"[7]; 0.1 mg/kg s.c., day 2",100
same,survival rate,"[7]; 0.1 mg/kg s.c., day 3",60
same,survival rate,"[7]; 0.1 mg/kg s.c., day 4",60
same,survival rate,"[7]; 0.1 mg/kg s.c., day 5",60
same,survival rate,"[7]; 0.1 mg/kg s.c., day 6",60
same,survival rate,"[7]; 0.1 mg/kg s.c., day 7",40
same,survival rate,"[7]; 0.1 mg/kg s.c., day 8",40
same,survival rate,"[7]; 0.1 mg/kg s.c., day 9",20
same,survival rate,"[7]; 0.1 mg/kg s.c., day 10",20
same,survival rate,"[7]; 0.1 mg/kg s.c., day 11",20
same,survival rate,"[7]; 0.1 mg/kg s.c., day 12",20
same,survival rate,"[7]; 0.1 mg/kg s.c., day 13",20
same,survival rate,"[7]; 0.1 mg/kg s.c., day 14",20
same,T/C (%),[7]; 0.1 mg/kg s.c.,119%
same,survival rate,"[7]; 0.3 mg/kg s.c., day 0",100
same,survival rate,"[7]; 0.3 mg/kg s.c., day 1",100
same,survival rate,"[7]; 0.3 mg/kg s.c., day 2",100
same,survival rate,"[7]; 0.3 mg/kg s.c., day 3",100
same,survival rate,"[7]; 0.3 mg/kg s.c., day 4",100
same,survival rate,"[7]; 0.3 mg/kg s.c., day 5",100
same,survival rate,"[7]; 0.3 mg/kg s.c., day 6",100
same,survival rate,"[7]; 0.3 mg/kg s.c., day 7",80
same,survival rate,"[7]; 0.3 mg/kg s.c., day 8",80
same,survival rate,"[7]; 0.3 mg/kg s.c., day 9",80
same,survival rate,"[7]; 0.3 mg/kg s.c., day 10",80
same,survival rate,"[7]; 0.3 mg/kg s.c., day 11",80
same,survival rate,"[7]; 0.3 mg/kg s.c., day 12",80
same,survival rate,"[7]; 0.3 mg/kg s.c., day 13",80
same,survival rate,"[7]; 0.3 mg/kg s.c., day 14",80
same,T/C (%),[7]; 0.3 mg/kg s.c.,216%
same,survival rate,"[7]; 1 mg/kg s.c., day 0",100
same,survival rate,"[7]; 1 mg/kg s.c., day 1",100
same,survival rate,"[7]; 1 mg/kg s.c., day 2",100
same,survival rate,"[7]; 1 mg/kg s.c., day 3",100
same,survival rate,"[7]; 1 mg/kg s.c., day 4",100
same,survival rate,"[7]; 1 mg/kg s.c., day 5",100
same,survival rate,"[7]; 1 mg/kg s.c., day 6",100
same,survival rate,"[7]; 1 mg/kg s.c., day 7",100
same,survival rate,"[7]; 1 mg/kg s.c., day 8",100
same,survival rate,"[7]; 1 mg/kg s.c., day 9",100
same,survival rate,"[7]; 1 mg/kg s.c., day 10",100
same,survival rate,"[7]; 1 mg/kg s.c., day 11",100
same,survival rate,"[7]; 1 mg/kg s.c., day 12",100
same,survival rate,"[7]; 1 mg/kg s.c., day 13",80
same,survival rate,"[7]; 1 mg/kg s.c., day 14",80
same,T/C (%),[7]; 1 mg/kg s.c.,235%
"Cc1ccc(C2=CCCN([C@H](C)[C@](O)(Cn3cncn3)c3ccc(F)cc3F)C2)nc1C [I-11, (2R,3R)-2-(2,4-difluorophenyl)-3-(5,6-dimethyl-5′,6′-dihydro-2,3′-bipyridin-1′(2′H)-yl)-1-(1,2,4-triazol-1-yl)butan-2-ol]",MIC,[1],100 µg/mL
same,MIC,[2],10 µg/mL
same,MIC,[3],100 µg/mL
same,MIC,[4],0.1 µg/mL
same,MIC,[5],0.3 µg/mL
same,MIC,[6],10 µg/mL
"C[C@@H](n1ccc(-c2ccccn2)cc1=O)[C@](O)(Cn1cncn1)c1ccc(F)cc1F [I-8, 1′-[(1R,2R)-2-(2,4-difluorophenyl)-2-hydroxy-1-methyl-3-(1,2,4-triazol-1-yl)propyl]-2,4′-bipyridin-2′-one]",MIC,[1],100 µg/mL
same,MIC,[2],30 µg/mL
same,MIC,[3],0.1 µg/mL
same,MIC,[4],1 µg/mL
same,MIC,[5],0.3 µg/mL
same,MIC,[6],10 µg/mL
